Experimental data taken from the supplement of paper PMC6045584.
± gives the standard deviation of the averaged measurements.

Columns and labels:
[1] = compound: C[C@H](CN(C)C)Oc1nc(Nc2cc3cccc(Cl)c3cn2)cnc1C#N; test: surviving fraction relative to DMSO-only wells; higher = less growth inhibition; settings: exposure time: 5 days
Method in brief: (§1)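 At 250–500 cells per well in 384-well plates, log-phase tumour cell lines were seeded and, 24 hours on, exposed continuously for five days to inhibitors at 0.5, 1, 5, 10, 50, 100, 500 and 1000 nM. Viability readout was CellTiter-Glo luminescence, reported as surviving fraction normalised to the median of DMSO-only wells.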

CABOZANTINIB = compound: COc1cc2nccc(Oc3ccc(NC(=O)C4(C(=O)Nc5ccc(F)cc5)CC4)cc3)c2cc1OC [CABOZANTINIB]; test: as above; settings: exposure time: 5 days
Method in brief: as §1

Test System	surviving fraction ([1]; 0.5 nM)	surviving fraction ([1]; 1 nM)	surviving fraction ([1]; 5 nM)	surviving fraction ([1]; 10 nM)	surviving fraction ([1]; 50 nM)	surviving fraction ([1]; 100 nM)	surviving fraction ([1]; 500 nM)	surviving fraction ([1]; 1000 nM)	surviving fraction (CABOZANTINIB; 0.5 nM)	surviving fraction (CABOZANTINIB; 1 nM)	surviving fraction (CABOZANTINIB; 5 nM)	surviving fraction (CABOZANTINIB; 10 nM)	surviving fraction (CABOZANTINIB; 50 nM)	surviving fraction (CABOZANTINIB; 100 nM)	surviving fraction (CABOZANTINIB; 500 nM)	surviving fraction (CABOZANTINIB; 1000 nM)
DU4475 BREAST	1 ± 0.29	0.794 ± 0.19	0.918 ± 0.04	0.753 ± 0.064	0.777 ± 0.2	1.18 ± 0.25	0.476 ± 0.076	0.337 ± 0.095	0.782 ± 0.12	0.874 ± 0.076	0.868 ± 0.053	0.93 ± 0.16	0.899 ± 0.19	0.781 ± 0.085	0.908 ± 0.096	1.03 ± 0.12
MHM BONE	1.02 ± 0.031	1.03 ± 0.012	1.04 ± 0.026	1.07 ± 0.06	1.031 ± 0.0078	1.05 ± 0.02	1.063 ± 0.0031	0.999 ± 0.018	1.02 ± 0.045	1.01 ± 0.037	1.02 ± 0.026	1.04 ± 0.043	1.044 ± 0.0055	0.99 ± 0.021	0.896 ± 0.022	0.915 ± 0.019
HT1080 SOFT TISSUE	1.04 ± 0.044	1.03 ± 0.011	1.04 ± 0.017	1.04 ± 0.023	1 ± 0.028	0.972 ± 0.041	0.707 ± 0.018	0.398 ± 0.012	1.05 ± 0.025	0.999 ± 0.021	1.01 ± 0.021	1.03 ± 0.013	1.01 ± 0.022	1.01 ± 0.014	0.973 ± 0.0017	0.965 ± 0.033
MDAMB453 BREAST	1.04 ± 0.025	1.09 ± 0.063	1.11 ± 0.058	1.06 ± 0.025	1.1 ± 0.051	1.1 ± 0.056	0.596 ± 0.074	0.273 ± 0.012	1.04 ± 0.049	1.01 ± 0.034	1.09 ± 0.051	1.03 ± 0.052	1.01 ± 0.092	1.06 ± 0.014	1.06 ± 0.062	1.02 ± 0.041
NOS1 BONE	1.09 ± 0.18	1.05 ± 0.082	0.999 ± 0.066	1.02 ± 0.076	0.875 ± 0.046	0.709 ± 0.12	0.252 ± 0.0046	0.253 ± 0.0087	1.09 ± 0.062	1.08 ± 0.012	1.12 ± 0.078	1.16 ± 0.073	0.944 ± 0.029	0.841 ± 0.04	0.68 ± 0.077	0.579 ± 0.041
HOS BONE	1.01 ± 0.014	1.01 ± 0.024	0.996 ± 0.018	0.9907 ± 0.005	1.01 ± 0.035	1.002 ± 0.01	0.619 ± 0.023	0.16 ± 0.017	1.02 ± 0.011	1.001 ± 0.001	1.02 ± 0.015	0.9757 ± 0.008	1.015 ± 0.0092	0.984 ± 0.02	0.924 ± 0.019	0.89 ± 0.014
CAL120 BREAST	0.928 ± 0.063	0.922 ± 0.076	0.965 ± 0.057	0.934 ± 0.047	0.957 ± 0.069	0.917 ± 0.03	0.9 ± 0.07	0.745 ± 0.027	0.918 ± 0.082	0.924 ± 0.054	0.941 ± 0.056	0.921 ± 0.051	0.968 ± 0.052	0.923 ± 0.019	0.893 ± 0.045	0.886 ± 0.026
MDAMB134 BREAST	0.726 ± 0.035	0.791 ± 0.072	0.766 ± 0.071	0.663 ± 0.12	0.66 ± 0.073	0.6525 ± 0.005	0.497 ± 0.054	0.488 ± 0.02	0.902 ± 0.12	0.888 ± 0.047	0.896 ± 0.13	1.04 ± 0.14	0.907 ± 0.23	0.943 ± 0.0042	0.955 ± 0.086	0.873 ± 0.086
LNCAP PROSTATE	0.913 ± 0.085	0.863 ± 0.11	0.863 ± 0.015	0.92 ± 0.05	0.85 ± 0.064	0.855 ± 0.041	0.549 ± 0.047	0.464 ± 0.036	0.622 ± 0.084	1.02 ± 0.041	0.925 ± 0.05	0.897 ± 0.1	0.936 ± 0.042	0.976 ± 0.057	0.766 ± 0.013	0.383 ± 0.023
LM7 BONE	0.96 ± 0.013	0.916 ± 0.015	0.945 ± 0.068	1.02 ± 0.054	1.06 ± 0.086	0.99 ± 0.099	0.835 ± 0.11	0.528 ± 0.077	1.03 ± 0.091	0.998 ± 0.039	1.07 ± 0.035	1.04 ± 0.053	1.06 ± 0.11	1.09 ± 0.019	0.932 ± 0.015	0.889 ± 0.036
